# “Also recorded” adds a separate entry of the source.
# What was measured:
# Assay type in all cases: in vivo, Xenopus laevis
# NaV1.2 protein = test: Immunohistochemistry of NaV1.2 protein in the regeneration bud
# Source text: In order to better understand the role of NaV1.2, we examined its potential relationships with known regenerative pathways. First, we investigated the pathways potentially regulating NaV1.2 expression. […] However, in amputated tails treated with Concanamycin, a specific inhibitor of V-ATPase activity (Huss et al., 2002) that blocks regeneration (Adams et al., 2007), the expression of NaV1.2 protein was absent at 24 and 48 hpa (FIGS. 4A-4C). […] We next examined NaV1.2 protein expression during the refractory stages, an endogenous period during development in which tadpoles temporarily lose the ability of caudal regeneration (Beck et al., 2003). NaV1.2 protein was not detected in 24-hour tail stumps amputated during this non-regenerative state (FIG. 4D).
# (§1) Xenopus embryos were fixed overnight in MEMFA, heated for 2 hrs at 65° C. in 50% formamide (to inactivate endogenous alkaline phosphatases), permeabilized in PBTr+0.1% Triton X100 for 30 min, and processed for immunohistochemistry using alkaline phosphatase secondary antibody (Levin, 2004) until signal was optimal and background minimal (usually 12 hrs). The expression profiles represent consensus patterns obtained from the analysis of 8-12 embryos at each stage. Pan-anti-NaV (Sigma S-8809), anti-acetylated a-tubulin (Sigma #T6793), and anti-phospho-H3 (Upstate #05-598) antibodies were used at 1:1000.
# regeneration bud = test: Apoptosis in the regeneration bud (data not shown); details: MS-222 after tail amputation
# Source text: (§2) To characterize the temporal requirement of NaV1.2 function during regeneration, we looked to utilize pharmacological inhibitors of NaV1.2 that will enable us to vary the timing of the functional blockade. First, we determined whether chemical inhibition of NaV1.2 activity recapitulates its loss-of-function phenotype during regeneration. MS-222 (also known as tricaine) is a well-known inhibitor of VGSCs (Hedrick and Winmill, 2003) that blocks inward Na^+ currents (Frazier and Narahashi, 1975). […]. […] Importantly, the μM concentrations used for the tail assays were approximately ten-fold lower than what is usually used for amphibian anesthesia (generally in the mM range). Similar to the NaV1.2 RNAi experiment, the overall development and movement of the animals were normal during pharmacological treatment, and had no effect on primary tail formation during early embryogenesis. We conclude that NaV1.2 function is specifically required for regeneration, and that both pharmacological and molecular loss-of-function to selectively reveal the importance of NaV1.2.
# [1] = test system: H3P-positive (mitotic) cells; test: Anti-H3P immunohistochemistry of mitotic cells in amputated tails; details: 48 hpa, versus control siblings
# Source text: To understand the cellular basis for regenerative failure in animals with loss of NaV1.2 function, we examined proliferation in MS-222-treated amputated tails. During development, mitotic cells are observed to be randomly located in the growing tail. […]. We quantified the number and distribution of proliferating cells in regenerating tails at 48 hpa using an antibody to phosphorylated Histone 3B (H3P), a marker of the G2/M transition of the cell cycle that identifies mitotic cells in Xenopus and many other systems (Adams et al., 2007; Saka and Smith, 2001). […]. Many H3P-positive cells are seen in the wild-type regeneration bud (FIG. 3E) but very few are detected in MS-222 treated buds (FIG. 3F).
# as §1
# [2] = test system: Na^+ influx into the regeneration bud; test: Imaging of sodium flux with CoroNa Green indicator dye
# Protocol: NaV1.2 is a membrane-bound Na^+ transporter that regulates the influx of Na^+ into cells (Yu and Catterall, 2003). Thus, we examined the functional consequences of Na^+ transport in regeneration using MS-222. […] In intact tails, a few randomly distributed cells appear positive for the CoroNa Green signal relative to the majority of the tail population (FIG. 3A). […] When the amputated tails were treated with the NaV inhibitor, MS-222, the CoroNa Green signal was abolished (FIG. 3C, p<0.02), confirming that inhibition of NaV1.2 function abrogates Na^+ influx into the bud.
# (§3) At 23 hpa, tadpoles were incubated in 90 μM of CoroNa Green indicator dye (Invitrogen) in 0.1×MMR for 45 minutes and washed twice in 0.1×MMR+30 uM BTS (to immobilize tadpole movement). At 24 hpa, the CoroNa Green signal was excited at […] and fluorescence emission data was collected at […]. Data was analyzed using IPLab software. For induction of Na^+ current, 0.1×MMR was supplemented with sodium gluconate (Sigma) to increase the Na^+ concentration to 90 mM. For refractory period analysis, tails were amputated at st. 47, at 18 hpa, and animals were treated with or without 90 mM Na^+ and 20 μM monensin (Sigma) in 0.1×MMR with 90 μM CoroNa Green for 45 minutes and washed twice in 0.1×MMR+50 uM BTS. Imaging of Vmem using DiBAC4(3) (Invitrogen) was performed exactly as described in (Adams et al., 2007).
# BMP4 = test: Expression level of BMP4 in the regeneration bud (data not shown); details: in the presence of MS-222, data not shown
# Source text: (§4) RNA expression of Notch, Msx1, and BMP components can be observed after 24 hpa in the regenerating tail tissues. We performed in situ hybridization using gene-specific RNA probes to examine the expression patterns of Notch and Msx1 in the regeneration bud after treatment with MS-222. In wild-type regeneration buds at 48 hpa, Notch1 is normally expressed in the neural ampulla and in the mesenchymal region of the regeneration bud (FIGS. 4F and 4H). […] At 48 hpa, Msx1 was expressed in the neural ampulla and at the epithelial edge of the regenerating tail tip (FIGS. 4J and 4L). When NaV activity was blocked, Msx1 expression was abolished (FIGS. 4K and 4M).
# [3] = test system: Xenopus tail regeneration; test: Tail regeneration assay, tails amputated at stages 40-41, scored at 7 days; details: for tail regeneration: treatment after amputation at st. 40, 7 days
# Protocol: Xenopus laevis larvae were cultured using standard protocols approved for the care of experimental organisms. Tails at stages 40-41, or stages 45-47 (refractory period) (Nieuwkoop and Faber, 1967) were amputated under a dissecting microscope using a scalpel blade at the midpoint between the anus and the tip. Tadpoles were cultured in (0.1×MMR±inhibitor) at 22° C. for 7 days and scored for tail regeneration. Drug experiments were carried out at least in duplicate.
# To quantify and compare regeneration efficiency of tadpoles treated with different reagents, the “Regeneration Index” (RI) was determined. The RI evaluates the efficiency of regeneration for each treatment and allows for comparison of the effect of various treatments to controls.
# Individual animals for each specific treatment were each scored as follows:
# Full: complete regeneration (indistinguishable from uncut controls).
# Good: robust regeneration with minor defects (e.g., missing fin, curved axis).
# Poor: poor regeneration (hypomorphic/defective regenerates).
# For each treatment, the percentage of regenerates belonging to each category were calculated, and then multiplied by 3, 2, 1 or 0, respectively for, Full, Good, Poor and None. The resulting R1 for each condition tested ranges from 0 to 300, with 0 corresponding to no regeneration, and 300 for complete regeneration.
# Xenopus laevis larvae were cultured via approved protocols (IACUC #M2008-08). Tails at stages 40-41, or stages 45-47 (refractory period) (Nieuwkoop and Faber, 1967) were amputated at the midpoint between the anus and the tip. Tadpoles were cultured in (0.1×MMR±reagent) at 22° C. for 7 days and scored for tail regeneration. […]
# Delta = test: Expression level of Delta in the regeneration bud (data not shown); details: in the presence of MS-222, data not shown
# axons of the regenerate = test: Acetylated α-tubulin staining of axons in tail regenerates; details: 72 hpa (3-day) tails, MS-222 treated
# Source text: It has long been known that regenerative growth requires proper innervation (Singer, 1952, 1965). Thus, we asked whether NaV1.2 regulates neural regeneration by examining the neuronal pattern in the amputated tail of tadpoles treated with MS-222. In normal 3-day old tail regenerates, axons appear in bundles that grow and concentrate to the end of the regenerate, in a direction parallel to the anterior-posterior axis (FIG. 3G).
# as §1
# Notch1 = test: RNA in situ hybridization of Notch1 in the regeneration bud; details: 48 hpa, MS-222 after amputation
# Source text: as §4
# (§5) Embryos were fixed in MEMFA (Sive et al., 2000) and dehydrated in methanol. In situ hybridization was carried out according to standard protocols (Harland, 1991) with probes to: NaV1.2 (AY121368), NaV1.5 (Armisen et al., 2002), Notch1 (Coffman et al., 1990), and Msx1 (Feledy et al., 1999).
# Xenopus tadpoles = test: Observation of overall development and movement of treated animals; details: during pharmacological treatment in the tail assay
# Source text: as §2
# Msx1 = test: RNA in situ hybridization of Msx1 in the regeneration bud; details: 48 hpa, MS-222 after amputation
# Source text: as §4, §5
# BMP2 = test: Expression level of BMP2 in the regeneration bud (data not shown); details: in the presence of MS-222, data not shown
# Source text: as §4
# [4] = test system: membrane voltage of regeneration bud cells; test: Imaging of membrane voltage with the voltage dye DiBAC4(3); details: 24 hpa, versus control
# Source text: To gain a detailed mechanistic understanding of NaV1.2 activity, we examined the consequences of modulating Na^+ ion transport in the regenerating tail. During development, the intact tail is hyper-polarized with a few depolarized cells that are randomly distributed (Adams et al., 2007). However, after tail amputation, the presumptive regeneration bud becomes highly depolarized. […]. If the bud is polarized at this timepoint, then regeneration proceeds normally; if the bud remains depolarized (as when V-ATPase is inactivated, either during the refractory period or by Concanamycin), then regeneration fails. Because VGSC activity is also a well-known major determinant of a cell's membrane potential level, we hypothesized that loss of NaV1.2 activity could alter the membrane voltage state of the regeneration buds at 24 hpa.
# as §3, with “47, at 18 hpa, and animals were treated with or without 90 mM Na^+ and 20 μM monensin (Sigma) in 0.1×MMR with 90 μM CoroNa Green for 45 minutes and washed twice in 0.1×MMR+50 uM BTS. Imaging of Vmem using DiBAC4(3) (Invitrogen) was performed exactly as described in (Adams et al., 2007).” left out
# [5] = test system: Xenopus tail regeneration during the refractory period; test: Tail regeneration assay, tails amputated during the refractory period (stages 45-47)
# [6] = 24 hpa regeneration bud, MS-222 treated
compound,measurement,setting,value
C/C=C/[C@H]1O[C@@](O)([C@@H](C)[C@H](O)[C@H](C)[C@H]2OC(=O)/C(OC)=C/C(C)=C/[C@@H](C)[C@@H](O)[C@@H](CC)[C@@H](O)[C@H](C)C/C(C)=C/C=C/[C@@H]2OC)C[C@@H](O)[C@@H]1C [Concanamycin],NaV1.2 protein expression in the regeneration bud,NaV1.2 protein; 24 hpa,absent
same,NaV1.2 protein expression in the regeneration bud,NaV1.2 protein; 48 hpa,absent
CCOC(=O)c1cccc(N)c1.CS(=O)(=O)O [MS-222],apoptosis in the bud,regeneration bud,did not induce significant apoptosis
same,decrease in the number of mitotic cells in the regeneration bud region,[1],90%
same,CoroNa Green signal / Na^+ entry into the bud,[2]; [6],abolished; also recorded: blocks Na^+ entry into the bud
same,decrease in CoroNa Green signal versus control buds,[2]; [6],70%
same,level of BMP4,BMP4,greatly reduced
same,Regeneration Index (RI),"[3]; MS-222 (250 μM per FIG. 2B) immediately after tail amputation, scored at 7 days, RI 0-300, controls RI=265",62
same,effect on regeneration,"[3]; MS-222 added at 48 hpa, after regenerative outgrowth has begun",no effect
same,tails that failed to regenerate,[3]; MS-222 for the first 48 hpa,78%
same,tadpoles in which tail regeneration was prevented,[3]; MS-222 for the first 24 hours post amputation,45%
same,tails with inhibited regeneration,[3]; MS-222 through the entire 7 days of the assay,82%
same,tail regeneration,[3],failed to regenerate; also recorded: inhibition of regeneration is dosage-dependent
same,level of Delta,Delta,greatly reduced
same,axon pattern and quantity in the regenerate,axons of the regenerate,axons to extend circumferentially along the edge of the regeneration bud; also recorded: overall quantity of neurons appeared to be reduced
same,Notch1 RNA expression,Notch1,greatly reduced; also recorded: greatly down-regulated and mis-localized
same,overall development and movement of the animals,Xenopus tadpoles,normal
same,Msx1 RNA expression,Msx1,abolished; also recorded: absent
same,level of BMP2,BMP2,greatly reduced
same,change of membrane voltage in regeneration bud cells,[4],did not observe any changes in membrane voltage
CN[C@@H]1C[C@H]2O[C@@](C)([C@@H]1OC)n1c3ccccc3c3c4c(c5c6ccccc6n2c5c31)C(=O)NC4 [Staurosporine],regenerative ability relative to controls,[3]; 10 nM STS on amputated tails,28 % of controls
same,tail regeneration,[3],strong reduction
same,overall development and movement of the animals,Xenopus tadpoles,otherwise unaffected
CC[C@@]1([C@@H]2O[C@@H]([C@H]3O[C@@](O)(CO)[C@H](C)C[C@@H]3C)C[C@@H]2C)CC[C@H]([C@]2(C)CC[C@]3(C[C@H](O)[C@@H](C)[C@@H]([C@@H](C)[C@@H](OC)[C@H](C)C(=O)O)O3)O2)O1 [monensin],CoroNa Green signal at the amputation site,"[2]; refractory tails at 19 hpa, after one hour of 20 uM monensin in 90 mM Na^+ medium",strong CoroNa Green fluorescence; also recorded: significantly stronger CoroNa Green signal
same,Regeneration Index (RI),"[5]; 20 uM monensin in medium containing 90 mM Na^+ for one hour at 18 hpa, refractory controls 11.5, n=44",59.1
same,increase of regeneration over the control,"[5]; 20 μM monensin with 90 mM Na^+, 1 hour at 18 hpa",3 fold
same,tadpoles with induced regeneration,"[5]; 20 μM monensin with 90 mM Na^+, 1 hour at 18 hpa, 7 dpa, controls 11%",36%
same,regenerated tails showing good to full regeneration,"[5]; 20 μM monensin with 90 mM Na^+, 1 hour at 18 hpa, share of the regenerating tails",45%
same,regenerative ability,"[5]; monensin alone, without high extracellular Na^+, data not shown",did not improve regenerative ability
insulin,animals showing good or full regeneration,"[5]; insulin at 0 hours post amputation, assayed at 7 days, control 16%",39%
same,Regeneration Index (RI),"[5]; insulin at 0 hours post amputation, assayed at 7 days, control RI=62, RI of 300 = full regeneration",118

# — patent US20120232000A1, “METHODS AND COMPOSITIONS FOR PROMOTING REGENERATION BY INCREASING INTRACELLULAR SODIUM CONCENTRATION” (priority 2009, published 2012)
